Patent US9828375B2, “4-position substituted pyrazolopyrimidine derivative, and use thereof in drug preparation” (Guangxi Wuzhou Pharmaceuticals (Group) Co., Ltd., priority 2012, dated 2017)

What was measured:
[1] = tested on: human malignant melanoma cell line A875; experiment: In vitro tumor cell proliferation inhibition (MTT): A875; type: cell-based
Excerpt: The purpose of the experiment was to test the inhibition activity of the compounds of the invention for in vitro human tumor cell proliferation by the methyl thiazolyl tetrazolium (MTT) colorimetry.
Main reagents: RPMI-1640, fetal bovine serum, pancreatin, etc. were purchased from Gibco BRL Company (Invitrogen Corporation, USA) and IMDM medium that was purchased from American Type Culture Collection (ATCC). Methyl thiazolyl tetrazolium (MTT) and dimethyl sulfoxide (DMSO) were products from Sigma Company (USA). Pyrazolopyrimidine derivatives were composed by the inventor. During in vitro experiment, 100% DMSO was prepared into 10 mM storage solution, the solution was stored in a refrigerator at −20° C. for future use, and was diluted to the required concentration with complete culture solution before use.
Cell line and culture: Human leukemia cell line MV4-11, Jurkat, K562, human thyrophyma cell line TT, human gastric carcinoma cell line MKN-45, human malignant melanoma cell lines A375 and A875, human pancreatic carcinoma cell line panc-1, human cervical carcinoma cell line HELA, human colorectal carcinoma cell line HCT116, etc. were purchased from American type culture collection and were preserved by this laboratory. All leukemia cell lines (except MV4-11), gastric carcinoma cell lines and thyrophyma cell lines were cultured in RPMI-1640 complete medium containing 10% fetal bovine serum, 100 U/mL penicillin and 100 μg/mL streptomycin at 37° C. in 5% CO2. The remaining cell lines were cultured in DMEM complete medium containing 10% fetal bovine serum (containing 20% MV4-11 cell), 100 U/mL penicillin and 100 µg/mL streptomycin at 37° C. in 5% CO2.
Cell suspension with cell concentration of 1-2×10^4/mL was adjusted with the complete cell medium and inoculated in a 96-well plate, with each well filled with 200 μl cell suspension that was cultured overnight. On the next day, supernatant was sucked and abandoned (supernatant was sucked upon centrifugation of suspension cells), and then cells were processed with test compounds at gradient concentrations respectively. Meanwhile, a negative control group free from drug and a solvent control group with equal volume were set, and the DMSO concentration was 0.1%. Each dose group was provided with three wells and cultured at 37° C. in 5% CO2. After 72 hours, 20 μl 5 mg/mL MTT reagent was added to each well, and cultured for another 2 to 4 hours, the supernatant was abandoned; 150 μL DMSO was added to each well again, vibrated and mixed evenly for 15 minutes; the absorbance (A) values (proportional to living cell amount) were determined with a microplate reader (λ=570 nm) and averaged. […] Experiment was repeated for 3 times at least. Experimental data were expressed with means, data statistics were tested by t, and P<0.05 means that difference has a statistical significance. The cell proliferation inhibition effects of all compounds as follows are expressed by IC50 or inhibition rate.

FGFR2 = FGFR2 (Homo sapiens, UniProt P21802); experiment: Kinase inhibition activity test, isotope labeling: FGFR2; type: biochemical; details: for Activity inhibition rate FGFR2 (h) / inhibition at 10 µM: test compound at a concentration of 10 μM; for inhibition at 10 µM: read-out: Activity inhibition rate FGFR2 (h); for IC50: ATP 90 μM, read-out: FGFR2 IC50 value (inhibitory activity value)
FGFR2, sequence (P21802 22-821): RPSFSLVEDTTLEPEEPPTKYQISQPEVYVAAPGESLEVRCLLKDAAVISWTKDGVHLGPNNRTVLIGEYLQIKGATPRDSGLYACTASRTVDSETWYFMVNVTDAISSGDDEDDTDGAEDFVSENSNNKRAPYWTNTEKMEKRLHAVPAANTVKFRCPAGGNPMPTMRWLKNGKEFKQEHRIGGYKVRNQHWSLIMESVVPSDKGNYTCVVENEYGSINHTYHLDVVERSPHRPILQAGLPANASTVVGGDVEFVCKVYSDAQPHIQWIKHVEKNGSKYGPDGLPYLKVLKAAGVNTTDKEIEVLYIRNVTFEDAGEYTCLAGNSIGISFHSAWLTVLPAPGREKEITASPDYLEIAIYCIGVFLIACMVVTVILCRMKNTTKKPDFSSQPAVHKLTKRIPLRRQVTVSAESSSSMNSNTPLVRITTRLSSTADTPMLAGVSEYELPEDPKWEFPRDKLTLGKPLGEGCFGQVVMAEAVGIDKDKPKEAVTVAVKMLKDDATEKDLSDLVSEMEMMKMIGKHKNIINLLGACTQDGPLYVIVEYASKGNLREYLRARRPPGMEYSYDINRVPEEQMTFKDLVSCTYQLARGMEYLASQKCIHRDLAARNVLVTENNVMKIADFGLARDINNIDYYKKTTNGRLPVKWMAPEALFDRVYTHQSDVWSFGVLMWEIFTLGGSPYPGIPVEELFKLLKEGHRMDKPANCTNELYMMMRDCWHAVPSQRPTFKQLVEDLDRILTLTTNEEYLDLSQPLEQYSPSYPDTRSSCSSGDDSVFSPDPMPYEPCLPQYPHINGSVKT
Experimental: (§1) The purpose of this experiment was to test the inhibitory activity of the compound of the invention for in vitro kinase with the isotope labeling method (the γ phosphate group on ATP was labeled). In this experiment, the in vitro activity inhibition of such kinases as FLT3, VEGFR2, FLT1, FLT4, RET, c-RAF, B-RAF, c-KIT, PDGFα, PDGFβ, FGFR2, FGFR1, EphA2, EphB2, SRC, ABL, ALK and Met was tested respectively. Staurosporine was reference molecule (or referred to as positive control). The kinase inhibition activity of the test compound was expressed by half-inhibitory concentration (IC50) or the kinase activity inhibition rate of the test compound at a concentration of 10 μM. The IC50 value could be obtained by calculating the kinase activity inhibition rate of the test compound at different concentrations.
(§2) 20 mM 3-(N-morpholinyl)propanesulfonic acid (MOPS); 1 mM ethylenediaminetetraacetic acid (EDTA), 0.01% Brij 35 (Brij-35), 5% glycerol, 0.1% mercaptoethanol, 1 mg/mL bovine serum albumin (BSA), 10 mM manganous dichloride solution (MnCl2), 0.1 mg/mL glutamic acid/tyrosine (4:1) polypeptide (poly(Glu, Tyr)4:1), 50 μM EAIYAAPFAKKK (substrate of FLT3), 0.33 mg/mL myelin basic protein (substrate of VEGFR2), 250 μM KKKSPGEYVNIEFG (substrate of FLT1(h)), 500 μM GGEEEEYFELVKKKK (substrate of FLT4(h)), 250 μM KKKSPGEYVNIEFG (substrate of RET), 0.66 mg/mL myelin basic protein (substrate of C-RAF), 250 μM GGMEDIYFEFMGGKKK (substrate of c-Kit), 250 μM GGMEDIYFEFMGGKKK (substrate of PDGFα), 250 μM KKKSPGEYVNIEFG (substrate of FGFR1), […] GGEEEEYFELVKKKK (substrate of SRC), 50 μM EAIYAAPFAKKK (substrate of ABL), 250 μM KKKSPGEYVNIEFG (substrate of ALK), 250 μM KKKSPGEYVNIEFG (substrate of Met(h)), 10 mM magnesium acetate and γ-^33 P-ATP solution, stop buffer (3% phosphate buffer), washing buffer (75 mM phosphate solution), methanol, Filtermat A membrane, FLT3, VEGFR2, FLT3, VEGFR2, FLT1, FLT4, RET, c-RAF, B-RAF, c-KIT, PDGFRα, PDGFRβ, FGFR2, FGFR1, EphA2, EphB2, SRC, ABL, ALK, Met and other kinases, and the test compounds.
(§3) Buffers (8 mM MOPS with pH value of 7.0, 0.2 mM EDTA and 10 mM MnCl2), (5-10 mU) kinases to be tested (FLT3, VEGFR2, FLT1, FLT4, RET, c-RAF, B-RAF, c-KIT, PDGFRα, PDGFRβ, FGFR2, FGFR1, EphA2, EphB2, SRC, ABL, ALK and Met), substrates of kinases to be tested (refer to experimental materials), 10 mM magnesium acetate and γ-^33 P-ATP solution, and test compounds at different concentrations were added to a reaction tube orderly. […] Reaction was terminated with 5 μL 3% phosphate buffer finally, and 10 μL reaction solution was titrated to the Filtermat A membrane; solution was washed for 3 times with 75 mM phosphate solution with each time lasting 5 minutes, and then washed once with methanol. Finally, the Filtermat A membrane was dried, and scintillation counting was performed on the membrane, with scintillation count reflecting the phosphorylation degree of the substrates, so that the activity inhibition of kinase could be characterized.

c-KIT = c-KIT (Homo sapiens, UniProt P10721); experiment: Kinase inhibition activity test, isotope labeling: c-KIT; type: biochemical; details: for Activity inhibition rate c-Kit (h) / inhibition at 10 µM: test compound at a concentration of 10 μM; for inhibition at 10 µM: read-out: Activity inhibition rate c-Kit (h); for IC50: ATP 200 μM, read-out: c-KIT IC50 value (inhibitory activity value)
c-KIT, sequence (P10721 26-976): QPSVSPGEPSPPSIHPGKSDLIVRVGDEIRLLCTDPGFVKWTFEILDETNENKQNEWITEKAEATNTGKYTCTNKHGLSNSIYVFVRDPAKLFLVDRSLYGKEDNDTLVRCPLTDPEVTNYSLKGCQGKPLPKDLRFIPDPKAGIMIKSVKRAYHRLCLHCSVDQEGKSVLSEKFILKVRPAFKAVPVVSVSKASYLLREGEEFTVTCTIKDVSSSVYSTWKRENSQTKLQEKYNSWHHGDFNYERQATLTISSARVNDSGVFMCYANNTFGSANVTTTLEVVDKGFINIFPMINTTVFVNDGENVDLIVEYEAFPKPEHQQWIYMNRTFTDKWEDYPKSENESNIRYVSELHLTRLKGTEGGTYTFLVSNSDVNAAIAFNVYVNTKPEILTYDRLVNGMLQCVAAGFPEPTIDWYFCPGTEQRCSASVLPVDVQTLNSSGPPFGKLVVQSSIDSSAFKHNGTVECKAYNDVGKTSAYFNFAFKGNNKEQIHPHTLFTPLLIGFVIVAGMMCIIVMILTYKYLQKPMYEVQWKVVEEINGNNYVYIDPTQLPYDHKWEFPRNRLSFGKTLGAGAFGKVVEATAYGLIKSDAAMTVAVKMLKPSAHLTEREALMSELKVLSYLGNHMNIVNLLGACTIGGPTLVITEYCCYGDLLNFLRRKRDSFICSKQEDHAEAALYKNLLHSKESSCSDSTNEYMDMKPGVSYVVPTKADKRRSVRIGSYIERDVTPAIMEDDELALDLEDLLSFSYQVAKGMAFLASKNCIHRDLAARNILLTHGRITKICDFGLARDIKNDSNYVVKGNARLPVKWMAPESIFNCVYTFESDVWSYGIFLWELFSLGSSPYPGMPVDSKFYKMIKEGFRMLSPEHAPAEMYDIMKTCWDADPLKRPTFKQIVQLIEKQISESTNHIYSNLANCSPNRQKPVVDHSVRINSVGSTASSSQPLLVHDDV
Experimental: as §1, §2, §3

Compound | IC50 ([1]; 72 hours) | Activity inhibition rate FGFR2 (h) (FGFR2) | Activity inhibition rate c-Kit (h) (c-KIT) | IC50 ([1]; Homo sapiens, A875, 72 hours) | inhibition at 10 µM (FGFR2) | inhibition at 10 µM (c-KIT) | IC50 (FGFR2) | IC50 (c-KIT) | Activity inhibition rate FGFR2 (h) (FGFR2; 10 µM)
CC(C)c1cccc(NC(=O)Nc2ccc(Oc3ncnc4[nH]ncc34)c(F)c2)c1 [4a-7, 1-(4-((1H-pyrazolopyrimidine-4-yl)oxy)-3-fluorophenyl)-3-(3-isopropylphenyl)urea] | < 50 µM | 51% | 98% |  |  |  |  |  | 
CC(C)n1ncc2c(Oc3ccc(NC(=O)Nc4cc(C(C)(C)C)on4)cc3)ncnc21 [5a-4, 1-(5-tert-butylisoxazol-3-yl)-3-(4-(1-isopropyl-(1H-pyrazolopyrimidine-4-yl)oxy)phenyl)urea] |  |  |  | < 50 µM | > 30% | > 30% |  |  | 
CC(C)(C)c1cc(NC(=O)Nc2ccc(Sc3ncnc4[nH]ncc34)cc2)no1 [4c-3, 1-(4-(1H-pyrazolopyrimidine-4-sulfydryl)phenyl)-3-(5-tert-butylisoxazol-3-yl)urea] | < 50 µM | >50% | >90% |  |  |  |  |  | 
O=C(Nc1ccc(Oc2ncnc3[nH]ncc23)cc1)Nc1ccc(Cl)c(C(F)(F)F)c1 [4a-2] | 4.12 µM | 80% | 100% |  |  |  | 1.8 µM | 0.507 µM | 
O=C(Nc1ccccc1)Nc1ccc(Oc2ncnc3[nH]ncc23)cc1 [4a-15, 1-(4-((1H-pyrazolopyrimidine-4-yl)oxy)phenyl)-3-phenylurea] | < 50 µM | 100% | 66% |  |  |  |  |  | 
O=C(Nc1ccc(Oc2ncnc3[nH]ncc23)cc1)Nc1cccc(C(F)(F)F)c1 [4a-6] |  |  |  | 6.24 µM | 56% | 100% | < 10 µM | 0.313 µM | 
C[C@H](NC(=O)Nc1ccc(Oc2ncnc3[nH]ncc23)cc1)c1ccccc1 [4a-18, (S)-1-(4-((1H-pyrazolopyrimidine-4-yl)oxy)phenyl)-3-(1-phenethyl)urea] | < 50 µM | 22% | 100% |  |  |  |  |  | 
O=C(Nc1ccc(Oc2ncnc3[nH]ncc23)cc1)Nc1ccc(C(F)(F)F)cc1Cl [4a-13] | < 50 µM | 13% | 85% |  |  |  |  |  | 
C[C@@H](NC(=O)Nc1ccc(Nc2ncnc3[nH]ncc23)cc1)c1ccccc1 [4b-2, (R)-1-(4-(1H-pyrazolopyrimidine-4-amido)phenyl)-3-(1-phenethyl)urea] |  |  |  | < 50 µM |  | > 30% |  |  | 66%
O=C(Nc1ccc(Oc2ncnc3[nH]ncc23)cc1)Nc1ccc(C(F)(F)F)cc1 [4a-1] |  |  |  | 3 to 10 µM | 22% | 100% |  |  | 
O=C(Nc1ccc(Sc2ncnc3[nH]ncc23)cc1)Nc1ccc(C(F)(F)F)cc1 [4c-1] |  |  |  | < 50 µM | > 50% | > 90% |  |  | 
O=C(Nc1ccc(Oc2ncnc3[nH]ncc23)c(F)c1)Nc1ccc(Cl)c(C(F)(F)F)c1 [4a-10, 1-(4-((1H-pyrazolopyrimidine-4-yl)oxy)-3-fluorophenyl)-3-(4-chloro-3-(trifluoromethyl)phenyl)urea] | < 50 µM | 53% | 49% |  |  |  |  |  | 
1-(4-((1H-pyrazolopyrimidine-4-yl)oxy)-3-fluorophenyl)-3-(3-trifluoromethoxy)phenyl)urea [4a-8] | 6.97 µM | 6% | 95% |  |  |  |  |  | 
C[C@H](NC(=O)Nc1ccc(Nc2ncnc3[nH]ncc23)cc1)c1ccccc1 [4b-4] | < 50 µM |  | >30% |  |  |  |  |  | 32%
CC(C)(C)c1cc(NC(=O)Nc2ccc(Oc3ncnc4[nH]ncc34)cc2)on1 [4a-25] | 3 to 10 µM | >50% | >90% |  |  |  | < 10 µM | 0.911 µM | 
CC(C)(C)c1cc(NC(=O)Nc2ccc(Oc3ncnc4[nH]ncc34)c(F)c2)no1 [4a-31] | 3 to 10 µM | >50% | >90% |  |  |  | < 10 µM | 0.087 µM | 
COc1ccc(NC(=O)Nc2ccc(NC(=O)N3C=NC=C4NNC=C43)cc2)cc1 [4b-6, 1-(4-(1H-pyrazolopyrimidine-4-amido)phenyl)-3-(4-methoxyphenyl)urea] |  |  |  | < 50 µM | 32% | > 30% |  |  | 
O=C(Nc1ccc(Sc2ncnc3[nH]ncc23)cc1)Nc1cccc(C(F)(F)F)c1 [4c-2] | < 50 µM | >50% | >90% |  |  |  |  |  | 
O=C(Nc1ccc(Oc2ncnc3[nH]ncc23)cc1)Nc1ccc(N2CCOCC2)cc1 [4a-16, 1-(4-((1H-pyrazolopyrimidine-4-yl)oxy)phenyl)-3-(4-morpholinylphenyl)urea] |  |  |  | < 50 µM |  | 77% |  |  | 
O=C(Nc1ccc(Oc2ncnc3[nH]ncc23)cc1)Nc1cc(C(F)(F)F)on1 [4a-28] |  |  |  | < 50 µM | > 50% | > 90% |  |  | 
O=C(Nc1ccc(NC(=O)N2C=NC=C3NNC=C32)cc1)Nc1ccc(Cl)c(C(F)(F)F)c1 [4b-5, 1-(4-(1H-pyrazolopyrimidine-4-amido)phenyl)-3-(4-chloro-3-(trifluoromethyl)phenyl)urea] |  |  |  |  | 52% | > 30% |  |  | 
